Measurements published in US20110129935A1, “PROTEIN STABILITY ASSAY USING A FLUORESCENT REPORTER OF PROTEIN FOLDING” (James Cook University, priority 2008, published 2011).

Tests used:
CAT-GFP = CAT-GFP (Escherichia coli, UniProt P62577); type: binding; details: 10 mM chloramphenicol, 9.2 mM ampicillin or 6.4% ethanol
Description: (§1) Protein samples (6 or 10 μl) were incubated along a temperature gradient in a thermocycler for 5 minutes or 30 minutes for the determination of Tagg, or at a constant temperature and increasing times to determine kagg. After heat treatment and centrifugation as described above, 3 or 5 μl of supernatant were transferred to a black 96-well plate (Nunclon, Nunc, Rochester, N.Y., USA), diluted with 47 or 50 μl respectively of Buffer A or Buffer B and the fluorescent Ffold was determined with a fluorescence plate reader (Victor V Wallace, Perkin-Elmer, Melbourne VIC, Australia). The excitation and emission filters were set at 355 nm and 535 nm respectively, with 40 nm band-width. Data were normalized against the fluorescence of an untreated sample.
(§2) To determine the effect of ligands, CAT-GFP reaction premix contained 9.2 μl of CAT-GFP (71 μM in Buffer A), 51.6 μl of Buffer A and 4.2 μl of either 50 mg/ml chloramphenicol in ethanol or 50 mg/ml ampicillin in water. GK-GFP reaction premix contained 9.3 μl of GK-GFP (70 μM), 49.20 of Buffer A and 6.5 μl of either Buffer A+10 mM glycerol or Buffer A+10 mM glucose. Reaction volume was 10 μl and 5 μl of the soluble fraction was analysed by plate reader after centrifugation.
The S method was then further developed to evaluate the effect of ligand binding and additives in a rapid throughput format for the three test proteins using replicates of single timepoints (FIG. 6a-6c). […] Indeed, the temperature used to test for chloramphenicol binding had to be kept quite low and for a short time as GFP would have been destabilized in more stringent conditions. […] This non-specific stabilization could also be attributed to the low stringency of the conditions.

Tus-GFP = Tus-GFP (Escherichia coli, UniProt P16525, Q80R); experiment: Isothermal aggregation of Tus-GFP with additives (kagg, S method); parameters: species or system E. coli; details: 46° C., 25% glycerol in 0.5× Buffer B
Description: as §1, with “sample. […]” for “sample.”
The kagg (s^−1) measured the loss of fluorescence of the soluble fraction of proteins over time. The kagg values were determined by the exponential fit of normalized Ffold as follows:
To evaluate the kinetic parameters of the system, a 96-well plate format was designed that enabled measurement of the residual Ffold of Tus-GFP over time. Isothermal aggregation reactions were monitored at 46° C. to quantify the effect of stabilizing or destabilizing salts and additives on the kagg of Tus-GFP (FIG. 3). […]

GK-GFP = GK-GFP (Escherichia coli, UniProt P0A6F3); experiment: Rapid throughput S method, Ffold of GK-GFP with ligands or other proteins; type: binding, E. coli; details: 1 mM glycerol in presence of BSA 15 μM
Description: as §1
as §2, with “centrifugation. […]” for “centrifugation.”

GK-GFP, sequence (P0A6F3 other isoform, or with tags, fused parts or gaps): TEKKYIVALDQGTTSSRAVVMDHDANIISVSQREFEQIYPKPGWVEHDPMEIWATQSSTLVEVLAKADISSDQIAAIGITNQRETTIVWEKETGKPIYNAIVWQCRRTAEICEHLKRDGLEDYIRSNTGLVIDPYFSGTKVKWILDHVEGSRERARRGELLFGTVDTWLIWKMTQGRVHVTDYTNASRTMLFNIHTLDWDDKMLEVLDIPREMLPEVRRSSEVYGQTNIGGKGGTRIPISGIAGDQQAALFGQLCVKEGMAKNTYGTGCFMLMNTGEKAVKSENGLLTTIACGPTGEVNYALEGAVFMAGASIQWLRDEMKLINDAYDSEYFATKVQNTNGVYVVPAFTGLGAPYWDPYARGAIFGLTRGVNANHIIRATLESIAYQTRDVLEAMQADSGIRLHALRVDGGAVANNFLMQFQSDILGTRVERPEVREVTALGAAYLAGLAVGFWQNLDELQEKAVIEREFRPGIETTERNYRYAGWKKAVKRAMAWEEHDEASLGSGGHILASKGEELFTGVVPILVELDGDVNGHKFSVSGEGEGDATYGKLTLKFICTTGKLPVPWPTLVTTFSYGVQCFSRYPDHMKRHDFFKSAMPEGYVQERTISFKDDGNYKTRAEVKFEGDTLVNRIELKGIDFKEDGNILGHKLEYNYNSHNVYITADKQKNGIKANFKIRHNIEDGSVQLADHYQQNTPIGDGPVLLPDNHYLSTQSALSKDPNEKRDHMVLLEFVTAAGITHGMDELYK

| Structure (SMILES) | stabilization of CAT-GFP (Ffold) (CAT-GFP) | stabilization effect on Tus-GFP (kagg) (Tus-GFP) | stabilization of GK-GFP (Ffold) (GK-GFP) |
| --- | --- | --- | --- |
| CC1(C)S[C@@H]2[C@H](NC(=O)[C@H](N)c3ccccc3)C(=O)N2[C@H]1C(=O)O [ampicillin] | moderate stabilization | – | – |
| O=C(N[C@H](CO)[C@H](O)c1ccc([N+](=O)[O-])cc1)C(Cl)Cl [chloramphenicol] | stabilizing | – | – |
| CCO [ethanol] | almost the same stabilizing effect | – | – |
| OCC(O)CO [glycerol] | – | largest stabilization effect | almost completely stabilized |
